Results on one substance are retold here after paper PMC7367873, “Dissecting the sequence determinants for dephosphorylation by the catalytic subunits of phosphatases PP1 and PP2A” (Nature Communications, 2020).

This experiment deals with GFP-14-3-3β. Nature of the experiment: GFP-14-3-3β co-IP with LC-MS/MS, untreated GFP-14-3-3β versus GFP control (14-3-3 interactome). The class given is binding, human. Conditions: log2 difference; pairwise comparison untreated vs GFP, label-free quantification, 3 replicates each.

On to “PP1c: recombinant catalytic subunit of PP1”, for which the “Difference (log2), untreated vs GFP” value was determined as 1.715.
